Test results as given in PubChem BioAssay (NCI).
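Values below derive from 48-hour exposures of cells grown in 96-well plates, with endpoints linearly interpolated between the two concentrations bracketing the appropriate inhibition level. TGI is the concentration that stops growth completely.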

Columns and labels:
Assay in all cases: growth of human tumour cells (NCI), 48 h
A498 renal = tested on: A498 renal
UACC-62 melanoma = tested on: UACC-62 melanoma
OVCAR-5 ovarian = tested on: OVCAR-5 ovarian
HCC-2998 colon = tested on: HCC-2998 colon
HOP-92 NSCLC = tested on: HOP-92 NSCLC
NCI-H226 lung = tested on: NCI-H226 lung
HCT-15 colon = tested on: HCT-15 colon
UO-31 renal = tested on: UO-31 renal
SK-MEL-2 melanoma = tested on: SK-MEL-2 melanoma
NCI-H522 lung = tested on: NCI-H522 lung
RXF 393 renal = tested on: RXF 393 renal
MOLT-4 leukemia = tested on: MOLT-4 leukemia
SN12C renal = tested on: SN12C renal
A549 NSCLC = tested on: A549 NSCLC
HCT-116 colon = tested on: HCT-116 colon
SK-MEL-5 melanoma = tested on: SK-MEL-5 melanoma
SNB-19 CNS = tested on: SNB-19 CNS
OVCAR-3 ovarian = tested on: OVCAR-3 ovarian
SF-268 CNS = tested on: SF-268 CNS
SNB-75 CNS = tested on: SNB-75 CNS
KM12 colon = tested on: KM12 colon
HT29 colon = tested on: HT29 colon
U251 CNS = tested on: U251 CNS
HS 578T breast = tested on: HS 578T breast
SF-295 CNS = tested on: SF-295 CNS
NCI/ADR-RES ovarian = tested on: NCI/ADR-RES ovarian
SF-539 CNS = tested on: SF-539 CNS
786-0 renal = tested on: 786-0 renal
CAKI-1 renal = tested on: CAKI-1 renal
BT-549 breast = tested on: BT-549 breast
T-47D breast = tested on: T-47D breast
EKVX NSCLC = tested on: EKVX NSCLC
COLO 205 colon = tested on: COLO 205 colon
K-562 leukemia = tested on: K-562 leukemia
RPMI-8226 leukemia = tested on: RPMI-8226 leukemia
NCI-H23 lung = tested on: NCI-H23 lung
TK-10 renal = tested on: TK-10 renal
MALME-3M melanoma = tested on: MALME-3M melanoma
MDA-MB-435 = tested on: MDA-MB-435
MDA-N = tested on: MDA-N
OVCAR-4 ovarian = tested on: OVCAR-4 ovarian
IGROV1 ovarian = tested on: IGROV1 ovarian
MDA-MB-231 breast = tested on: MDA-MB-231 breast
HL-60(TB) leukemia = tested on: HL-60(TB) leukemia
ACHN renal = tested on: ACHN renal
UACC-257 melanoma = tested on: UACC-257 melanoma
MCF7 breast = tested on: MCF7 breast
SW-620 colon = tested on: SW-620 colon
DU-145 prostate = tested on: DU-145 prostate
LOX IMVI melanoma = tested on: LOX IMVI melanoma
SK-MEL-28 melanoma = tested on: SK-MEL-28 melanoma
HOP-62 NSCLC = tested on: HOP-62 NSCLC
NCI-H460 lung = tested on: NCI-H460 lung
OVCAR-8 ovarian = tested on: OVCAR-8 ovarian
PC-3 prostate = tested on: PC-3 prostate
CCRF-CEM leukemia = tested on: CCRF-CEM leukemia
M14 melanoma = tested on: M14 melanoma
SR leukemia = tested on: SR leukemia
SK-OV-3 ovarian = tested on: SK-OV-3 ovarian

## CC(=O)O[C@H]1C(=O)[C@@]2(C)[C@H]([C@H](OC(=O)c3ccc(F)cc3)[C@]3(O)C[C@H](OC(=O)[C@H](O)[C@@H](NC(=O)c4ccccc4)c4ccccc4)C(C)=C1C3(C)C)[C@]1(OC(C)=O)CO[C@@H]1C[C@@H]2O
A498 renal
  TGI: > 6.73 µM
UACC-62 melanoma
  TGI: > 25 µM
OVCAR-5 ovarian
  TGI: > 11.5 µM
HCC-2998 colon
  TGI: 174 nM
HOP-92 NSCLC
  TGI: > 25 µM
NCI-H226 lung
  TGI: > 25 µM
HCT-15 colon
  TGI: > 25 µM
UO-31 renal
  TGI: > 25 µM
SK-MEL-2 melanoma
  TGI: 9.73 µM
NCI-H522 lung
  TGI: 585 nM
RXF 393 renal
  TGI: 902 nM
MOLT-4 leukemia
  TGI: 2600 nM
SN12C renal
  TGI: > 25 µM
A549 NSCLC
  TGI: > 25 µM
HCT-116 colon
  TGI: 381 nM
SK-MEL-5 melanoma
  TGI: > 9.33 µM
SNB-19 CNS
  TGI: > 25 µM
OVCAR-3 ovarian
  TGI: 43.7 nM
SF-268 CNS
  TGI: > 25 µM
SNB-75 CNS
  TGI: 659 nM
KM12 colon
  TGI: > 25 µM
HT29 colon
  TGI: 3.85 µM
U251 CNS
  TGI: 738 nM
HS 578T breast
  TGI: 55.9 nM
SF-295 CNS
  TGI: > 6.59 µM
NCI/ADR-RES ovarian
  TGI: > 25 µM
SF-539 CNS
  TGI: 60.4 nM
786-0 renal
  TGI: > 25 µM
CAKI-1 renal
  TGI: > 25 µM
BT-549 breast
  TGI: > 25 µM
T-47D breast
  TGI: > 9.63 µM
EKVX NSCLC
  TGI: > 25 µM
COLO 205 colon
  TGI: > 25 µM
K-562 leukemia
  TGI: 172 nM
RPMI-8226 leukemia
  TGI: 19.5 nM
NCI-H23 lung
  TGI: > 25 µM
TK-10 renal
  TGI: > 16.1 µM
MALME-3M melanoma
  TGI: > 25 µM
MDA-MB-435
  TGI: 4.9 nM
MDA-N
  TGI: 4.96 nM
OVCAR-4 ovarian
  TGI: > 25 µM
IGROV1 ovarian
  TGI: > 25 µM
MDA-MB-231 breast
  TGI: > 25 µM
HL-60(TB) leukemia
  TGI: 14.9 nM
ACHN renal
  TGI: > 25 µM
UACC-257 melanoma
  TGI: > 25 µM
MCF7 breast
  TGI: > 25 µM
SW-620 colon
  TGI: > 25 µM
DU-145 prostate
  TGI: 2310 nM
LOX IMVI melanoma
  TGI: 5.56 µM
SK-MEL-28 melanoma
  TGI: > 25 µM
HOP-62 NSCLC
  TGI: > 25 µM

## N#CCc1nc(-c2ccccc2)n[nH]1
NCI-H460 lung
  TGI: > 100 µM
UACC-62 melanoma
  TGI: > 100 µM
OVCAR-5 ovarian
  TGI: > 100 µM
HCC-2998 colon
  TGI: > 100000 nM
OVCAR-8 ovarian
  TGI: > 100 µM
PC-3 prostate
  TGI: > 100 µM
HCT-15 colon
  TGI: > 100 µM
UO-31 renal
  TGI: > 100 µM
CCRF-CEM leukemia
  TGI: > 100 µM
SK-MEL-2 melanoma
  TGI: > 100 µM
NCI-H522 lung
  TGI: > 100000 nM
RXF 393 renal
  TGI: > 100000 nM
MOLT-4 leukemia
  TGI: > 100000 nM
SN12C renal
  TGI: > 100 µM
M14 melanoma
  TGI: > 100 µM
A549 NSCLC
  TGI: > 100 µM
HCT-116 colon
  TGI: > 100000 nM
SR leukemia
  TGI: > 100 µM
SK-MEL-5 melanoma
  TGI: > 100 µM
SNB-19 CNS
  TGI: > 100 µM
OVCAR-3 ovarian
  TGI: > 100000 nM
SF-268 CNS
  TGI: > 100 µM
SNB-75 CNS
  TGI: > 100000 nM
KM12 colon
  TGI: > 100 µM
HT29 colon
  TGI: > 100 µM
HS 578T breast
  TGI: > 100000 nM
SF-295 CNS
  TGI: > 100 µM
NCI/ADR-RES ovarian
  TGI: > 100 µM
SF-539 CNS
  TGI: > 100000 nM
786-0 renal
  TGI: > 100 µM
SK-OV-3 ovarian
  TGI: > 100 µM
CAKI-1 renal
  TGI: > 100 µM
BT-549 breast
  TGI: > 100 µM
T-47D breast
  TGI: > 100 µM
EKVX NSCLC
  TGI: > 100 µM
COLO 205 colon
  TGI: > 100 µM
K-562 leukemia
  TGI: > 100000 nM
NCI-H23 lung
  TGI: > 100 µM
TK-10 renal
  TGI: > 100 µM
MALME-3M melanoma
  TGI: > 100 µM
MDA-MB-435
  TGI: > 100000 nM
MDA-N
  TGI: > 100000 nM
OVCAR-4 ovarian
  TGI: > 100 µM
IGROV1 ovarian
  TGI: > 100 µM
MDA-MB-231 breast
  TGI: > 100 µM
HL-60(TB) leukemia
  TGI: > 100000 nM
ACHN renal
  TGI: > 100 µM
UACC-257 melanoma
  TGI: > 100 µM
MCF7 breast
  TGI: > 100 µM
SW-620 colon
  TGI: > 100 µM
DU-145 prostate
  TGI: > 100000 nM
LOX IMVI melanoma
  TGI: > 100 µM
HOP-62 NSCLC
  TGI: > 100 µM
